What was measured:
[1] = test system: MS2 DNA fragment (MS2F and MS2R); assay: DNase I footprinting on MS2 DNA fragment; type: binding; conditions: for footprint shape at position H (footnote 1) / footprint shape at position J (footnote 2): MS2 DNA fragment; for footprint shape at position H (footnote 1): site H; for footprint shape at position J (footnote 2): site J
Procedure: The sequence selectivity of the six PBD-pyrrole conjugates (GWL 77, GWL 78, GWL 79, GWL 80, GWL 81 and GWL 82) was evaluated by standard DNA footprinting on a fragment of MS2 as follows, in accordance with the technique described in Martin, Biochemistry (2005) 44:4135-4147.
The vast majority of footprint sites are common features in the binding profiles of all six conjugates, with only a small number of sites being footprinted by a subset of the family. Even more unexpectedly, no site is footprinted by only one molecule (in fact, the fewest number of conjugates that bind at any single site is four). The differential cleavage plot in FIG. 5 provides footprinting profiles at a supramaximal concentration color-coded for each conjugate which illustrates a striking degree of overlap. Although there is no conspicuous change in footprinting patterns as the number of pyrroles units in each conjugate increases, there are changes in two other features, namely, the apparent binding affinity and the width of the footprinted site. […] To simplify comparison between molecules, only the most significant footprint site (5′-^62[…]^70−3′/3′-[…]-5′) (SEQ ID NO:24) was selected for comparison. When the binding affinity of each molecule is compared to the relative number of pyrrole units it contains, a parabolic relationship is observed. By this method, GWL 80 (four pyrroles) appears to be the strongest binder with a DNase IC50 of around 30 nM. Conjugate GWL 79 (three pyrroles) and GWL 81 (five pyrroles) follow closely with affinities in the region of 30-100 nM. […] Finally, GWL 77 (one pyrrole) is a particularly weak footprinting molecule with an DNase IC50 of about, or in excess of, 10 μM.

[2] = test system: MCF-7 human mammary cells; assay: Cellular uptake and nuclear incorporation, confocal microscopy; type: cell-based; conditions: for nuclear uptake: 200 μM over 24 hour; for time to cellular uptake / detection: MCF-7 cells; for nuclear fluorescence: highest drug concentrations, exposure time 24 hour
Procedure: Cellular uptake and nuclear incorporation of drug into MCF-7 human mammary cells was visualized using confocal microscopy. Conjugates GWL 77, GWL78, GWL 79, GWL 80 and GWL 81 were prepared in DMSO at 20 mM and diluted in RPMI to the appropriate concentration. Freshly harvested MCF7 cells at 5×10^4 cells/ml were placed in 200 μl of complete RPMI1640 (containing 10% FCS) into the wells of 8-well chambered cover-glasses. Cells were left overnight to adhere at 37° C. […] At 1, 5 and 24 hours after addition of conjugates, the cells were examined using a Nikon TE2000 with UV filter set and viewed under oil immersion with the x63 objective lens.

[3] = test system: K562 human chronic myeloid leukemia cells; assay: In vitro cytotoxicity assay (MTT); type: cell-based; conditions: K562, one hour exposure, MTT after four days
Procedure: In one aspect of this test, K562 human chronic myeloid leukemia cells are maintained in RPMI1640 medium supplemented with 10% fetal calf serum and 2 mM glutamine at 37° C. in a humidified atmosphere containing 5% CO2 and are incubated with a specified dose of drug for one hour at 37° C. in the dark. The incubation is terminated by centrifugation (5 min, 300 g) and the cells are washed once with drug-free medium. Following the appropriate drug treatment, the cells are transferred to 96-well microtiter plates (10^4 cells per well, 8 wells per sample). Plates are then kept in the dark at 37° C. in a humidified atmosphere containing 5% CO2. The assay is based on the ability of viable cells to reduce a yellow soluble tetrazolium salt, 3-(4,5-dimethylthiazol-2-yl)-2,5-diphenyl-2H-tetrazolium bromide (MTT, Aldrich-Sigma), to an insoluble purple formazan precipitate. Following incubation of the plates for four days (to allow control cells to increase in number by approximately 10 fold), 20 μL of MTT solution (5 mg/ml in phosphate-buffered saline) is added to each well and the plates further incubated for five hours. […] The optical density is then read at a wavelength of 550 nm on a […]™ (Titertek Labsystems, Finland) ELISA plate reader, and a dose-response curve is constructed. […]

[4] = differential cleavage analysis, compared with GWL 79

Compound | apparent binding affinity relative to GWL 79 ([1]; C11 versus GWL 79) | binding at positions K and L [1, 4] | footprints at positions D, M and G [1, 4] | nuclear uptake [2] | time to cellular uptake / detection [2] | nuclear fluorescence [2] | IC50 [3] | footprint at position G ([1]; differential cleavage analysis) | IC50 ([1]; read-out: DNase IC50 (concentration of conjugate providing 50% inhibition of DNase I-mediated cleavage), site 5'-62CAATACACA70-3', estimated by eye from footprint images) | footprint shape at position H (footnote 1) [1] | footprint shape at position J (footnote 2) [1]
COC(=O)c1cc(NC(=O)c2cc(NC(=O)c3cc(NC(=O)CCOc4cc5c(cc4OC)C(=O)N4CCC[C@H]4C=N5)cn3C)cn2C)cn1C [C11, reference compound] | 30-100 fold | much weaker binding | lack of footprints | – | – | – | – | – | – | – | –
COC(=O)c1cc(NC(=O)CCCOc2cc3c(cc2OC)C(=O)N2CCC[C@H]2C=N3)cn1C [GWL 77, (11aS) methyl 4-[4-(7-methoxy-5-oxo-2,3,5,11a-tetrahydro-5H-pyrrolo[2,1-c][1,4]benzodiazepine-8-yloxy)-butyrylamino]-1-methyl-1H-pyrrole-2-carboxylate] | – | – | – | clear nuclear uptake | < 1 h | strong nuclear fluorescence | 51 nM | footprinted | ≥ 10000 nM | – | –
COC(=O)c1cc(NC(=O)c2cc(NC(=O)CCCOc3cc4c(cc3OC)C(=O)N3CCC[C@H]3C=N4)cn2C)cn1C [GWL 78, (11aS) methyl 4-({4-[4-(7-methoxy-5-oxo-2,3,5,11a-tetrahydro-5H-pyrrolo[2,1-c][1,4]benzodiazepine-8-yloxy)-butyrylamino]-1-methyl-1H-pyrrole-2-carbonyl}-amino)-1-methyl-1H-pyrrole-2-carboxylate] | – | – | – | clear nuclear uptake | 3 h | strong nuclear fluorescence | – | footprinted | – | – | –
COC(=O)c1cc(NC(=O)c2cc(NC(=O)c3cc(NC(=O)CCCOc4cc5c(cc4OC)C(=O)N4CCC[C@H]4C=N5)cn3C)cn2C)cn1C [GWL 79, (11aS) methyl 4-{[4-({4-[4-(7-methoxy-5-oxo-2,3,5,11a-tetrahydro-5H-pyrrolo[2,1-c][1,4]benzodiazepine-8-yloxy)-butyrylamino]-1-methyl-1H-pyrrole-2-carbonyl]-amino)-1-methyl-1H-pyrrole-2-carbonyl]-amino}-1-methyl-1H-pyrrole-2-carboxylate] | – | – | – | clear nuclear uptake | 3 h | strong nuclear fluorescence | – | – | – | – | –
COC(=O)c1cc(NC(=O)c2cc(NC(=O)c3cc(NC(=O)c4cc(NC(=O)CCCOc5cc6c(cc5OC)C(=O)N5CCC[C@H]5C=N6)cn4C)cn3C)cn2C)cn1C [GWL 80, (11aS) methyl 4-[(4-{[4-({4-[4-(7-methoxy-5-oxo-2,3,5,11a-tetrahydro-5H-pyrrolo[2,1-c][1,4]benzodiazepine-8-yloxy)-butyrylamino]-1-methyl-1H-pyrrole-2-carbonyl]-amino)-1-methyl-1H-pyrrole-2-carbonyl]-amino}-1-methyl-1H-pyrrole-2-carbonyl)-amino]-1-methyl-1H-pyrrole-2-carboxylate] | – | – | – | – | – | more diffuse throughout the cell | – | footprinted | – | ^127, 29, 31 show evidence of two closely juxtaposed footprints at this position | ^227, 29, 31 show evidence of two closely juxtaposed footprints at this position
COC(=O)c1cc(NC(=O)c2cc(NC(=O)c3cc(NC(=O)c4cc(NC(=O)c5cc(NC(=O)CCCOc6cc7c(cc6OC)C(=O)N6CCC[C@H]6C=N7)cn5C)cn4C)cn3C)cn2C)cn1C [GWL 81, (11aS) methyl 4-({4-[(4-{[4-({4-[4-(7-methoxy-5-oxo-2,3,5,11a-tetrahydro-5H-pyrrolo[2,1-c][1,4]benzodiazepine-8-yloxy)-butyrylamino]-1-methyl-1H-pyrrole-2-carbonyl]-amino)-1-methyl-1H-pyrrole-2-carbonyl]-amino}-1-methyl-1H-pyrrole-2-carbonyl)-amino]-1-methyl-1H-pyrrole-2-carbonyl}-amino)-1-methyl-1H-pyrrole-2-carboxylate] | – | – | – | – | – | more diffuse throughout the cell | – | footprinted | – | ^127, 29, 31 show evidence of two closely juxtaposed footprints at this position | ^227, 29, 31 show evidence of two closely juxtaposed footprints at this position
COC(=O)c1cc(NC(=O)c2cc(NC(=O)c3cc(NC(=O)c4cc(NC(=O)c5cc(NC(=O)c6cc(NC(=O)CCCOc7cc8c(cc7OC)C(=O)N7CCC[C@H]7C=N8)cn6C)cn5C)cn4C)cn3C)cn2C)cn1C [GWL 82, (11aS) methyl 4-{[4-({4-[(4-{[4-({4-[4-(7-methoxy-5-oxo-2,3,5,11a-tetrahydro-5H-pyrrolo[2,1-c][1,4]benzodiazepine-8-yloxy)-butyrylamino]-1-methyl-1H-pyrrole-2-carbonyl]-amino)-1-methyl-1H-pyrrole-2-carbonyl]-amino}-1-methyl-1H-pyrrole-2-carbonyl)-amino]-1-methyl-1H-pyrrole-2-carbonyl}-amino)-1-methyl-1H-pyrrole-2-carbonyl]-amino}-1-methyl-1H-pyrrole-2-carboxylate] | – | – | – | – | – | more diffuse throughout the cell | 32 nM | – | – | ^127, 29, 31 show evidence of two closely juxtaposed footprints at this position | ^227, 29, 31 show evidence of two closely juxtaposed footprints at this position

— patent US20070154906A1, “Methods to identify therapeutic candidates” (Spirogen Ltd., priority 2005, published 2007)
